Values after ≈ are worked out from the molar mass of the structure shown. Values joined by “and” are separate entries in the source; they are usually repeats but may differ in a detail not shown here. Equal entries are not always repeated. Marks after values point to notes of the source that are not given here.
Legend:
[1] = kinetic solubility determination in PBS pH 7.4; conditions: pH 7.4, aqueous buffer, kinetic from dmso stock
[2] = tested on: S. aureus ATCC 9144; experiment: inhibition of bacterial growth, OD600 after 20 h; type: cell-based, Staphylococcus aureus; conditions: SSA 5.0 mM, 2.5% ethanol, negative = enhanced growth
Protocol: (§1) With the self-associative properties of 1–10 established, the antimicrobial activity of these SSAs were determined against a panel of clinically relevant, high-priority pathogens including: P. aeruginosa PAO1; Klebsiella pneumonia (K. pneumoniae) M6; E. coli NCTC 12923; Acinetobacter baumannii (A. baumannii) ATCC 17978; S. aureus ATCC 9144; Enterococcus faecalis (E. faecalis) NCTC 775; and Enterococcus faecium (E. faecium) NCTC 12204. […] However, it should be noted that the SSA stock solution was prepared in a H2O 5% EtOH solution, to ensure that the SSA aggregates formed were in line with those characterised within the scope of the SSA self-association studies.
(§2) Section 3: Biological methods
(§3) These methods were taken directly from UK Health and Security Office (UKHSA) standard […]
(§4) Preparation of Luria Broth media (LB): Yeast extract (5.0 g), tryptone (10.0 g) and sodium chloride (10.0 g) were dissolved in dH₂O (1.0 L) then divided into bottles and autoclaved.
(§5) Preparation of Luria Broth (LB) agar plates: Agar (6.0 g) was added to LB (400 mL) and autoclaved. Once cool, the LB agar was poured into sterile petri dishes under sterile conditions and allowed to set. LB plates were stored at 4 °C until use.
(§6) Preparation of bacterial plates: Sterile LB agar plates were streaked using streaked using the desired bacteria i) Pseudomonas aeruginosa (P.aeruginosa) PAO1, ii) Klebsiella pneumoniae (K. pneumoniae) M6 iii) E. coli NCTC 12923 and iv) Acinetobacter baumannii (A. baumannii) ATCC 17978 and Gram-positive i) Staphylococcus aureus (S. aureus) ATCC 9144 ii) Enterococcus faecalis (E. faecalis) NCTC 775 and iii) Enterococcus faecium (E. faecium ) NCTC 12204, then incubated at 37 °C overnight.
(§7) Preparation of Inoculum: An initial culture was made up by inoculating LB media (5 mL) with a single colony of bacteria under sterile conditions and incubated at 37 °C with shaking overnight. The following day, overnight bacterial cultures were subcultured into fresh LB medium to a starting OD600 of 0.01.
(§8) Preparation of 96 well microplate for MIC50: The 1:100 cell suspension (150 µL) was dispensed into individual wells under sterile conditions. SSAs (30 µL) were added to the wells to equal a total volume of 180 µL in the wells. Six repeats of each concentration for each SSA were created each plate. The plates were sealed using parafilm, then incubated at 37 °C in a microplate reader for 20 hours. OD600 endpoint data was used to generate growth curves. […]

[3] = tested on: E. faecalis NCTC 775; experiment: inhibition of bacterial growth, OD600 after 20 h; type: cell-based, Enterococcus faecalis; conditions: SSA 5.0 mM, 2.5% ethanol, negative = enhanced growth
Protocol: as §1, §2, §3, §4, §5, §6, §7, §8

[4] = dynamic light scattering (DLS) of SSA aggregates; type: physicochemical; conditions: 5.6 mM, H2O 5.0% EtOH, 298 K
Protocol: Dynamic light scattering (DLS) and zeta potential measurements in H2O 5.0% EtOH were used to determine the hydrodynamic diameter (dH) and stability of the higher-order SSA aggregates detected by (Q) ^1H NMR spectroscopy at 5.6 mM, Table 1. […] However, we are unable to confidently report a dH for 1 due to the instability of this system, which is supported by a zeta potential value of −26 mV, obtained for this SSA under the same experimental conditions. […] Due to the instability of these systems in the absence of solvent, attempts to further characterise these systems through SEM or AFM are not possible.[48]

[5] = tested on: E. coli NCTC 12923; experiment: inhibition of bacterial growth, OD600 after 20 h; type: cell-based, Escherichia coli; conditions: SSA 5.0 mM, 2.5% ethanol, negative = enhanced growth
Protocol: as §1, §2, §3, §4, §5, §6, §7, §8

[6] = tested on: all Gram-positive bacteria tested; experiment: inhibition of bacterial growth, span over the Gram-positive panel; type: cell-based, S. aureus, E. faecalis, E. faecium; conditions: SSA 5.0 mM, 20 hours; read-out: inhibition against all Gram-positive bacteria tested (span)
Protocol: as §1, §2, §3, §4
Preparation of Luria Broth (LB) agar plates: Agar (6.0 g) was added to LB (400 mL) and autoclaved. […]
Preparation of 96 well microplate for MIC50: The 1:100 cell suspension (150 µL) was dispensed into individual wells under sterile conditions. […] The plates were sealed using parafilm, then incubated at 37 °C in a microplate reader for 20 hours. […]

[7] = tested on: A. baumannii ATCC 17978; experiment: inhibition of bacterial growth, OD600 after 20 h; type: cell-based, Acinetobacter baumannii; conditions: SSA 5.0 mM, 2.5% ethanol, negative = enhanced growth
Protocol: as §1, §2, §3, §4, §5, §6, §7, §8

[8] = tested on: K. pneumoniae M6; experiment: inhibition of bacterial growth, OD600 after 20 h; type: cell-based, Klebsiella pneumoniae; conditions: SSA 5.0 mM, 2.5% ethanol, negative = enhanced growth
Protocol: as §1, §2, §3, §4, §5, §6, §7, §8

[9] = tested on: E. faecium NCTC 12204; experiment: inhibition of bacterial growth, OD600 after 20 h; type: cell-based, Enterococcus faecium; conditions: SSA 5.0 mM, 2.5% ethanol, negative = enhanced growth
Protocol: as §1, §2, §3, §4, §5, §6, §7, §8

[10] = tested on: P. aeruginosa PAO1; experiment: inhibition of bacterial growth, OD600 after 20 h; type: cell-based, Pseudomonas aeruginosa; conditions: SSA 5.0 mM, 2.5% ethanol, negative = enhanced growth
Protocol: as §1, §2, §3, §4, §5, §6, §7, §8

[11] = quantitative (Q) 1H NMR spectroscopy, proportion of SSA becoming NMR silent (higher-order aggregates); type: physicochemical; conditions: for (Q) 1H NMR spectroscopy, proportion NMR silent, acid or anion / (Q) 1H NMR spectroscopy, proportion NMR silent, cation: 5.6 mM, D2O 5.0% EtOH, 298 K
Protocol: To confirm the presence of higher order self-associative structures quantitative (Q) ^1H NMR spectroscopy studies were undertaken at 5.6 mM in D2O 5% EtOH. Here the ^1H NMR resonances attributed to the EtOH are used as an internal standard.
Table S1 – Overview of results of the quantitative (Q) 1H NMR studies for 1, 3, 5, 7 and 9
5.0 % EtOH . Values given in % represent the observed proportion of the SSA that has become
Table S2 – Overview of results of the quantitative (Q) 1H NMR studies for 2, 4, 6, 8 and 10
5.0 % EtOH. Values given in % represent the observed proportion of anion and cation that has

[12] = tensiometry: critical aggregate concentration (CAC) and surface tension; type: physicochemical; conditions: for Surface tension at CAC: H2O/5.0 % EtOH
Protocol: As the (Q) ^1H NMR spectroscopy experiments conducted at 5.6 mM in a D2O 5.0% EtOH solution confirmed the presence of higher-order self-associated structures with solid-like properties, concentration dependent surface tension measurements, obtained through tensiometry, were used to calculate critical aggregate concentration (CAC). Here the CAC is defined as the point at which an increase in SSA concentration no longer decreases surface tension but instead results in the formation of higher-order self-associated structures.

[13] = H2O 5.0% EtOH, 298 K, listed as 4

CC(=O)[C@H]1CC[C@H]2[C@@H]3CCC4=CC(=O)CC[C@]4(C)[C@H]3CC[C@]12C [Progesterone, reference compound]
solubility [1]: 14.5 µM (≈ 4.57 µg/mL)

O=C(O)CC[C@@H](NC(=O)Nc1ccc(C(F)(F)F)cc1)C(=O)O [SSA 4]
Percentage inhibition of bacterial growth, ATCC 9144 (S. aureus) ([2]; listed as 4): 98.85% and 99% | Percentage inhibition of bacterial growth, NCTC 775 (E. faecalis) ([3]; listed as 4): 98.82% and 99% | DLS Peak 2 maxima ([4]; listed as 4): 5118 nm | Polydispersity index (%) ([4]; listed as 4): 27.4 (± 0.8) % | dH (DLS intensity distribution peak 1 maxima) ([4]; listed as 4): 255 nm | Percentage inhibition of bacterial growth, NCTC 12923 (E. coli) ([5]; listed as 4): 39.02% and 39% | inhibition at 5000 µM [6]: 99 to 100% | Percentage inhibition of bacterial growth, ATCC 17978 (A. baumannii) ([7]; listed as 4): -20.93% and −21% | Percentage inhibition of bacterial growth, M6 (K. pneumoniae) ([8]; listed as 4): 19.93% and 20% | Percentage inhibition of bacterial growth, NCTC 12204 (E. faecium) ([9]; listed as 4): 99.74% and 100% | Percentage inhibition of bacterial growth, PAO1 (P. aeruginosa) ([10]; listed as 4): 10.30% and 10% | (Q) 1H NMR spectroscopy, proportion NMR silent, acid or anion ([11]; listed as 4): 41% | (Q) 1H NMR spectroscopy, proportion NMR silent, cation ([11]; listed as 4): 43.2% and 43% | (Q) 1H NMR, proportion NMR silent, SSA acid or anion ([11]; ~112 mM, DMSO-d6 1.0% DCM): 0% | (Q) 1H NMR, proportion NMR silent, cation ([11]; ~112 mM, DMSO-d6 1.0% DCM): 0% | CAC [12, 13]: 22.26 mM and 22 mM | ST at CAC [12, 13]: 38 mN m^−1 | Surface tension at CAC ([12]; listed as 4): 38.35 mN/m

COc1ccc(NC(=O)N[C@@H](CCC(=O)O)C(=O)O)cc1 [SSA 6]
Percentage inhibition of bacterial growth, ATCC 9144 (S. aureus) ([2]; listed as 6): 55.64% and 56% | Percentage inhibition of bacterial growth, NCTC 775 (E. faecalis) ([3]; listed as 6): 7.71% and 8% | DLS Peak 2 maxima ([4]; listed as 6): 5868 nm | Polydispersity index (%) ([4]; listed as 6): 21.5 (± 1.3) % | dH (DLS intensity distribution peak 1 maxima) ([4]; listed as 6): 164 nm | Percentage inhibition of bacterial growth, NCTC 12923 (E. coli) ([5]; listed as 6): 32.77% and 33% | Percentage inhibition of bacterial growth, ATCC 17978 (A. baumannii) ([7]; listed as 6): -28.50% and −29% | Percentage inhibition of bacterial growth, M6 (K. pneumoniae) ([8]; listed as 6): 22.92% and 23% | Percentage inhibition of bacterial growth, NCTC 12204 (E. faecium) ([9]; listed as 6): 7.44% and 7% | Percentage inhibition of bacterial growth, PAO1 (P. aeruginosa) ([10]; listed as 6): 29.42% and 29% | (Q) 1H NMR spectroscopy, proportion NMR silent, acid or anion ([11]; listed as 6): 42% | (Q) 1H NMR spectroscopy, proportion NMR silent, cation ([11]; listed as 6): 41.8% and 42% | (Q) 1H NMR, proportion NMR silent, cation ([11]; ~112 mM, DMSO-d6 1.0% DCM): 0% | ST at the limit of solubility or 100 mM, whichever concentration is lower ([12]; H2O 5.0% EtOH, 298 K): 38 ^d mN m^−1 | CAC (footnote in place of a value) ([12]; H2O 5.0% EtOH, 298 K, listed as 6): ^c (CAC is >100 mM) | Surface tension at CAC ([12]; listed as 6): 38.24 mN/m

— paper PMC12645191, “Dicarboxylate and dicarboxylic acid appended supramolecular self-associating amphiphiles as antimicrobial agents against high priority bacterial pathogens” (Organic & Biomolecular Chemistry, 2025)
